The values that follow come from article PMC9029994 (RSC Advances, 2021).

Each structure is given as a SMILES string. pKd: −log10 of the molar value.

The assay addresses Sperm whale WT Mb (myoglobin, Mb) (Physeter macrocephalus, UniProt P02185, F44H/H65A). Put plainly: biochemical.

Sperm whale WT Mb (myoglobin, Mb), sequence (P02185 2-154 F44H/H65A): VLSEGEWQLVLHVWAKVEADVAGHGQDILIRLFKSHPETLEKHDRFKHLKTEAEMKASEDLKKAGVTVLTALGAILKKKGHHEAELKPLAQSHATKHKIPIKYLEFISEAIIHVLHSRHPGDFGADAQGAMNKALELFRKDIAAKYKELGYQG

`CN(C)c1ccc(C(=C2C=CC(=[N+](C)C)C=C2)c2ccccc2)cc1` [MG, malachite green] had a negative logarithm of the Kd (pKd) of 3.32.

As a reminder, the pKd is the negative decadic logarithm of the Kd, by convention in mol/L. Read a low pKd as a large Kd.
